This note sets out measurements from ChEMBL document CHEMBL1122922, “Inhibition of muscarinic receptor binding and acetylcholine-induced contraction of guinea pig ileum by analogues of 5'-(isobutylthio)adenosine” (J Med Chem, 1985).

The structures appear in SMILES notation.

The experiment deals with Muscarinic acetylcholine receptor. Briefly: Ability to inhibit binding of [3H]QNB to Muscarinic acetylcholine receptor in cultured N4TG1 neuroblastoma cells at 1e-8 to 1e-3 M.
In the case of `CC(C)CSCC1CC(n2cnc3c(N)nccc32)C(O)C1O` (centres undefined), the “I 50” value was found to be 210 µM.

In the case of `CC(C)CSC[C@H]1OC(n2cnc3c(N)ccnc32)[C@H](O)[C@@H]1O` (some centres undefined), the “I 50” value amounted to 52 µM.

As for `CC(C)CSC[C@H]1OC(n2cnc3c(N)nccc32)[C@H](O)[C@@H]1O` (some centres undefined), the “I 50” value worked out at 39 µM.

For `CC(C)CSC[C@H]1OC(n2cnc3c(N)ncnc32)[C@H](O)[C@@H]1O` (some centres undefined), the “I 50” value stood at 1500 µM.
